Results published in ChEMBL document CHEMBL5215006, “Antitumor Activity of Piceamycin by Upregulation of N-Myc Downstream-Regulated Gene 1 in Human Colorectal Cancer Cells” (J Nat Prod, 2022).
Calls of active or inactive are those of the source. The rule behind the calls is not given here.

Tests used:
SW480 [1] = assay: Antiproliferative activity against human SW480 cells assessed as cell growth inhibition incubated for 72 hrs by SRB assay; type: functional, cell-based; conditions: SW480, 72 h
HCT-116 [2] = assay: Inhibition of colony formation in human HCT-116 cells at 0.075 to 0.3 uM incubated for 72 hrs by crystal violet staining based assay; type: functional, cell-based; conditions: dose 0.075-0.3 µM, DDE = dose-dependent effect
HCT-116 [3] = assay: Cell cycle arrest in human HCT-116 cells assessed as accumulation at Sub-G1 phase at 0.15 uM incubated for 24 hrs by RNaseA/propidium iodide staining based flow cytometry (reference value: 3.66 %); type: functional
HCT-116 [4] = assay: Cell cycle arrest in human HCT-116 cells assessed as accumulation at S phase at 0.15 uM incubated for 24 hrs by RNaseA/propidium iodide staining based flow cytometry (reference value: 19.94 %); type: functional
HCT-116 [5] = assay: Cell cycle arrest in human HCT-116 cells assessed as accumulation at G2/M phase at 0.3 uM incubated for 24 hrs by RNaseA/propidium iodide staining based flow cytometry (reference value: 28.41 %); type: functional
SW480 [6] = assay: Cell cycle arrest in human SW480 cells assessed as accumulation at G2/M phase at 0.35 uM incubated for 24 hrs by RNaseA/propidium iodide staining based flow cytometry (reference value: 24.74 %); type: functional
SW480 [7] = assay: Cell cycle arrest in human SW480 cells assessed as accumulation at G0/G1 phase at 0.7 uM incubated for 24 hrs by RNaseA/propidium iodide staining based flow cytometry (reference value: 54.49 %); type: functional
SW480 [8] = assay: Cell cycle arrest in human SW480 cells assessed as accumulation at S phase at 0.7 uM incubated for 24 hrs by RNaseA/propidium iodide staining based flow cytometry (reference value: 16.7 %); type: functional
SW480 [9] = assay: Cell cycle arrest in human SW480 cells assessed as accumulation at Sub-G1 phase at 1.4 uM incubated for 24 hrs by RNaseA/propidium iodide staining based flow cytometry (reference value: 3.2 %); type: functional
HCT-116 [10] = assay: Cell cycle arrest in human HCT-116 cells assessed as downregulation of cyclin-D1 protein expression at 0.075 to 0.3 uM incubated for 24 hrs by immunoblotting assay; type: functional, cell-based; conditions: dose 0.075-0.3 µM
HCT-116 [11] = assay: Cell cycle arrest in human HCT-116 cells assessed as downregulation of CDK6 protein expression at 0.075 to 0.3 uM incubated for 24 hrs by immunoblotting assay; type: functional, cell-based; conditions: dose 0.075-0.3 µM
SW480 [12] = assay: Cell cycle arrest in human SW480 cells assessed as downregulation of cyclin-D1 protein expression at 0.35 to 1.4 uM incubated for 24 hrs by immunoblotting assay; type: functional, cell-based; conditions: dose 0.35-1.4 µM
HCT-116 [13] = assay: Induction of apoptosis in human HCT-116 cells assessed as upregulation of cleaved PARP expression at 0.3 uM measured at 12 to 48 hrs by immunoblotting assay; type: functional, cell-based; conditions: time 12-48 hrs, TDE = time-dependent effect
HCT-116 [14] = assay: Induction of apoptosis in human HCT-116 cells assessed as upregulation of cleaved caspase-8 expression at 0.3 uM measured at 12 to 48 hrs by immunoblotting assay; type: functional, cell-based; conditions: time 12-48 hrs, TDE = time-dependent effect
SW480 [15] = assay: Induction of apoptosis in human SW480 cells assessed as downregulation of survivin expression at 1.4 uM measured at 12 to 48 hrs by immunoblotting assay; type: functional, cell-based; conditions: time 12-48 hrs, TDE = time-dependent effect
HCT-116 [16] = assay: Induction of apoptosis in human HCT-116 cells assessed as viable cells at 0.075 uM incubated for 48 hrs by Annexin V-FITC/PI staining based flow cytometry analysis (Rvb= 94.18%); type: functional; conditions: read-out: Activity
HCT-116 [17] = assay: Induction of apoptosis in human HCT-116 cells assessed as late apoptotic cells at 0.075 uM incubated for 48 hrs by Annexin V-FITC/PI staining based flow cytometry analysis (Rvb= 3.18%); type: functional
SW480 [18] = assay: Induction of apoptosis in human SW480 cells assessed as viable cells at 0.35 uM incubated for 48 hrs by Annexin V-FITC/PI staining based flow cytometry analysis (Rvb= 92.6%); type: functional; conditions: read-out: Activity
SW480 [19] = assay: Induction of apoptosis in human SW480 cells assessed as late apoptotic cells at 0.7 uM incubated for 48 hrs by Annexin V-FITC/PI staining based flow cytometry analysis (Rvb= 5.26%); type: functional
SW480 [20] = assay: Induction of apoptosis in human SW480 cells assessed as late apoptotic cells at 1.4 uM incubated for 48 hrs by Annexin V-FITC/PI staining based flow cytometry analysis (Rvb= 5.26%); type: functional
SW480 [21] = assay: Induction of apoptosis in human SW480 cells assessed as upregulation of cleaved caspase-9 expression at 1.4 uM measured after 48 hrs by immunoblotting assay; type: functional, cell-based
HCT-116 [22] = assay: Anti-migratory activity against human HCT-116 cells assessed as upregulation of E-cadherin protein expression at 0.075 to 0.3 uM incubated for 24 hrs by immunoblotting assay; type: functional, cell-based; conditions: dose 0.075-0.3 µM
SW480 [23] = assay: Anti-migratory activity against human SW480 cells assessed as downregulation of N-cadherin protein expression at 0.35 to 1.4 uM incubated for 24 hrs by immunoblotting assay; type: functional, cell-based; conditions: dose 0.35-1.4 µM
SW480 [24] = assay: Anti-migratory activity against human SW480 cells assessed as downregulation of Snail protein expression at 0.35 to 1.4 uM incubated for 24 hrs by immunoblotting assay; type: functional, cell-based; conditions: dose 0.35-1.4 µM
HCT-116 [25] = assay: Anti-migratory activity against human HCT-116 cells assessed as upregulation of E-cadherin gene expression at 0.075 to 0.3 uM incubated for 24 hrs by RT-PCR assay; type: functional, cell-based; conditions: dose 0.075-0.3 µM
HCT-116 [26] = assay: Anti-migratory activity against human HCT-116 cells assessed as downregulation of N-cadherin gene expression at 0.075 to 0.3 uM incubated for 24 hrs by RT-PCR assay; type: functional, cell-based; conditions: dose 0.075-0.3 µM
HCT-116 [27] = assay: Anti-migratory activity against human HCT-116 cells assessed as downregulation of Snail gene expression at 0.075 to 0.3 uM incubated for 24 hrs by RT-PCR assay; type: functional, cell-based; conditions: dose 0.075-0.3 µM
SW480 [28] = assay: Anti-migratory activity against human SW480 cells assessed as upregulation of E-cadherin gene expression at 0.35 to 1.4 uM incubated for 24 hrs by RT-PCR assay; type: functional, cell-based; conditions: dose 0.35-1.4 µM
SW480 [29] = assay: Anti-migratory activity against human SW480 cells assessed as downregulation of Snail gene expression at 0.35 to 1.4 uM incubated for 24 hrs by RT-PCR assay; type: functional, cell-based; conditions: dose 0.35-1.4 µM
HCT-116 [30] = assay: Antimigratory activity against highly liver metastatic human HCT-116 cells assessed as downregulation of Snail protein expression at 0.075 to 0.3 uM incubated for 24 hrs by immunoblotting assay; type: functional, cell-based; conditions: dose 0.075-0.3 µM
HCT-116 [31] = assay: Antimigratory activity against highly liver metastatic human HCT-116 cells assessed as upregulation of NDRG1 gene expression at 0.075 to 0.3 uM incubated for 24 hrs by RT-PCR method; type: functional, cell-based; conditions: dose 0.075-0.3 µM
HCT-116 [32] = assay: Antimigratory activity against highly liver metastatic human HCT-116 cells assessed as upregulation of E-cadherin gene expression at 0.075 to 0.3 uM incubated for 24 hrs by RT-PCR method; type: functional, cell-based; conditions: dose 0.075-0.3 µM
[33] = Toxicity in Balb/c mouse xenografted with human HCT-116 cells assessed as body weight change at 1 mg/kg,ip administrated for 18 days by 3 times per week; type: organism-based; conditions: in vivo, 432 h, time 18 day
HCT-116 [34] = assay: Antitumor activity against human HCT-116 cells xenografted Balb/c mouse assessed as decrease in Ki67 protein expression at 3 mg/kg,ip administrated for 18 days by 3 times per week by immunoblotting assay; type: functional, organism-based; conditions: time 18.0 day

## C[C@@H]1\C=C/C=C/C=C\C=C\C=C\C(=O)C2=C(O)C(=O)C[C@@]2(C)/C=C/C=C\C=C/C(=O)NC1
SW480 [1]
  IC50: 650 nM
HCT-116 [2]
  inhibition: Dde
HCT-116 [3]
  Activity: 5.1%
HCT-116 [4]
  Activity: 11.41%
HCT-116 [5]
  Activity: 22.13%
SW480 [6]
  Activity: 24.45%
SW480 [7]
  Activity: 62.43%
SW480 [8]
  Activity: 15.28%
SW480 [9]
  Activity: 4.98%
HCT-116 [10]
  Activity: Active
HCT-116 [11]
  Activity: Active
SW480 [12]
  Activity: Active
HCT-116 [13]
  Activity: Tde
HCT-116 [14]
  Activity: Tde
SW480 [15]
  Activity: Tde
HCT-116 [16]
  viability at 0.075 µM: 84.8%
HCT-116 [17]
  Activity: 6.71%
SW480 [18]
  viability at 0.35 µM: 93%
SW480 [19]
  Activity: 17.78%
SW480 [20]
  Activity: 44.51%
SW480 [21]
  Activity: Active
HCT-116 [22]
  Activity: Active
SW480 [23]
  Activity: Active
SW480 [24]
  Activity: Active
HCT-116 [25]
  Activity: Active
HCT-116 [26]
  Activity: Active
HCT-116 [27]
  Activity: Active
SW480 [28]
  Activity: Active
SW480 [29]
  Activity: Active
HCT-116 [30]
  Activity: Active
HCT-116 [31]
  Activity: Active
HCT-116 [32]
  Activity: Active
[33]
  Activity: Non-Toxic
HCT-116 [34]
  Activity: Active
